Source: publication PMC9127750, “Structure-based design of CDC42 effector interaction inhibitors for the treatment of cancer” (Cell reports, 2022)
Several values for one entry are separate records, joined by “and”; a condition that tells them apart may be missing. Equal entries are not always repeated.

Tested on: WM3248 melanoma cells, 486 antibodies
Test: Reverse phase protein arrays (RPPA);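 for CA9.R.C RPPA level: ratio of treated to vehicle (0 µM) normalized linear protein signal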;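 for CD171.M.V RPPA level: ratio of treated to vehicle (0 µM) normalized linear protein signal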;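 for CREB pS133.R.C RPPA level: ratio of treated to vehicle (0 µM) normalized linear protein signal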;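 for Cyclin.B1.R.V RPPA level: ratio of treated to vehicle (0 µM) normalized linear protein signal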
Format: cell-based, Human
Details: 5 uM
Source text: Pellets were snap frozen in liquid nitrogen and shipped to MD Anderson Cancer Center core RPPA facility for RPPA analysis (Table S5). Three biological replicates for each sample were generated.
Nomenclatures on the RPPA heatmaps: name_of_antibody.species_of_antibody.status_of_antibody. V - antibody validated; C - validation of antibody in progress; Q - antibody nonspecific; E – under evaluation; antibodies raised in M - mouse, G - goat, R - rabbit, or T - rat.

CN(C)c1cccc(Nc2cc(-c3ccccc3)nc(C3CCNCC3)n2)c1 [ARN22089, N1,N1-dimethyl-N3-(6-phenyl-2-(piperidin-4-yl)pyrimidin-4-yl)benzene-1,3-diamine]
RPPA signal, antibody Vinculin.M.V (individual replicates): 0.948 and 1.034 and 1.010
RPPA signal, antibody WIPI1.R.C (individual replicates): 1.016 and 0.609
RPPA signal, antibody WIPI2.R.C (individual replicates): 0.917 and 1.190 and 1.151
RPPA signal, antibody WTAP.R.V (individual replicates): 1.007 and 0.770 and 0.970
RPPA signal, antibody Wee1.R.C (individual replicates): 0.852 and 1.576 and 1.161
RPPA signal, antibody Wee1_pS642.R.C (individual replicates): 0.857 and 1.327 and 1.158
RPPA signal, antibody XBP.1.G.C (individual replicates): 1.019 and 0.701
RPPA signal, antibody XIAP.R.C (individual replicates): 1.016 and 1.128
RPPA signal, antibody XPA.M.V (individual replicates): 1.083 and 0.917 and 1.035
RPPA signal, antibody XPF.R.C (individual replicates): 0.939 and 1.048
RPPA signal, antibody XRCC1.R.C (individual replicates): 1.023 and 0.932 and 0.869
RPPA signal, antibody YAP.R.C (individual replicates): 1.026 and 0.858 and 1.131
RPPA signal, antibody YAP_pS127.R.V (individual replicates): 0.924 and 0.808 and 1.102
RPPA signal, antibody YB1_pS102.R.V (individual replicates): 0.854 and 0.995
RPPA signal, antibody YES1.R.V (individual replicates): 1.034 and 0.913 and 0.948
RPPA signal, antibody YTHDF2.R.V (individual replicates): 1.139 and 0.982 and 0.641
RPPA signal, antibody YTHDF3.R.C (individual replicates): 0.920 and 0.753
RPPA signal, antibody ZAP.70.R.V (individual replicates): 0.901 and 1.193
RPPA signal, antibody ZEB1.R.V (individual replicates): 0.874 and 1.035
C.Raf.R.C RPPA level (replicates): 0.877 and 1.136
C.Raf_pS338.R.V RPPA level (replicates): 1.205
CA9.R.C RPPA level (replicates): 0.982 and 0.948 and 1.015
CD2.M.C RPPA level (replicates): 1.000 and 0.961 and 1.133
CD4.R.V RPPA level (replicates): 0.886 and 1.117
CD5.M.C RPPA level (replicates): 1.034 and 0.973
CD20.R.C RPPA level (replicates): 1.057 and 0.829 and 0.477
CD26.R.V RPPA level (replicates): 0.893 and 1.128 and 0.797
CD29.M.V RPPA level (replicates): 0.991 and 0.954 and 1.138
CD31.M.V RPPA level (replicates): 1.000 and 0.925 and 1.157
CD38.R.C RPPA level (replicates): 0.963 and 1.191 and 1.116
CD44.R.C RPPA level (replicates): 0.984 and 0.955 and 0.823
CD45.M.V RPPA level (replicates): 1.027 and 0.978 and 1.076
CD49b.M.V RPPA level (replicates): 1.059 and 0.901 and 0.919
CD68.M.C RPPA level (replicates): 1.053 and 0.950 and 1.032
CD74.M.V RPPA level (replicates): 0.953
CD134.R.V RPPA level (replicates): 1.004 and 0.980 and 1.076
CD171.M.V RPPA level (replicates): 0.646 and 0.896 and 0.990
CDK1_pT14.R.C RPPA level (replicates): 0.964 and 1.128
CDK9.R.V RPPA level (replicates): 1.046 and 0.940 and 0.953
CDKN2A.R.C RPPA level (replicates): 1.033 and 0.974 and 1.120
CDT1.R.V RPPA level (replicates): 1.009 and 1.034
CENP.A.R.V RPPA level (replicates): 1.061 and 0.838 and 0.961
CIITA.R.C RPPA level (replicates): 0.973 and 0.944 and 0.768
COG3.R.V RPPA level (replicates): 1.020 and 1.162 and 1.108
CRABP1.R.C RPPA level (replicates): 1.003 and 1.061
CRABP2.R.V RPPA level (replicates): 1.206 and 0.955 and 0.945
CREB_pS133.R.C RPPA level (replicates): 0.945 and 1.492 and 0.936
CSK.R.C RPPA level (replicates): 1.015 and 1.119 and 0.620
Calnexin.R.V RPPA level (replicates): 0.967 and 1.097
Caspase.3.cleaved.R.C RPPA level (replicates): 0.926 and 1.159
Caspase.7.cleaved..R.C RPPA level (replicates): 0.858 and 1.158
Caspase.8.M.Q RPPA level (replicates): 1.096 and 0.944
Caspase.8.cleaved.R.C RPPA level (replicates): 0.924 and 1.111 and 1.128
Caveolin.1.R.V RPPA level (replicates): 0.498 and 0.935 and 1.046
Cdc6.R.V RPPA level (replicates): 0.936
Cdc42.R.C RPPA level (replicates): 0.966 and 1.031
Chk1.M.C RPPA level (replicates): 1.078 and 0.961
Chk1_pS296.R.V RPPA level (replicates): 0.982 and 1.154 and 1.114
Chk1_pS345.R.C RPPA level (replicates): 1.000 and 1.084 and 0.861
Chk2.M.V RPPA level (replicates): 1.157 and 0.671
Chk2_pT68.R.C RPPA level (replicates): 0.939 and 1.327 and 1.189
Claudin.7.R.V RPPA level (replicates): 1.057 and 0.909 and 0.755
Collagen.VI.R.V RPPA level (replicates): 1.076 and 0.844 and 1.257
Complex.II.Subunit.M.V RPPA level (replicates): 1.008 and 1.014 and 0.777
Connexin.43.R.C RPPA level (replicates): 1.009 and 1.236
Coup.TFII.R.C RPPA level (replicates): 0.833 and 1.226
Cox2.R.C RPPA level (replicates): 1.024 and 0.895 and 1.250
Cox.IV.R.V RPPA level (replicates): 0.999 and 1.060 and 1.025
Creb.R.C RPPA level (replicates): 1.026 and 1.133 and 1.082
CtIP.R.V RPPA level (replicates): 0.829 and 1.057 and 0.997
Cyclin.B1.R.V RPPA level (replicates): 1.136 and 0.725 and 1.229
Cyclin.D1.R.C RPPA level (replicates): 1.048 and 0.891 and 1.065
Cyclin.D3.M.V RPPA level (replicates): 1.309 and 1.005 and 0.824
Cyclin.E1.R.V RPPA level (replicates): 1.096 and 0.925 and 0.965
Cyclophilin.F.M.V RPPA level (replicates): 0.978 and 1.019 and 0.727
D.a.Tubulin.R.V RPPA level (replicates): 0.975 and 1.193
DAPK1_pS308.M.C RPPA level (replicates): 1.267 and 0.870 and 0.330
DAPK2.R.C RPPA level (replicates): 0.970 and 1.126 and 1.124
DDB.1.R.V RPPA level (replicates): 0.890 and 0.958 and 1.524
DDR1.R.V RPPA level (replicates): 1.024 and 0.829 and 1.002
DDR1_pY513.R.C RPPA level (replicates): 1.024 and 0.961 and 1.078
DJ1.R.V RPPA level (replicates): 1.007 and 1.125
DM.Histone.H3.R.V RPPA level (replicates): 0.950 and 1.152 and 1.117
DM.K9.Histone.H3.M.V RPPA level (replicates): 1.035 and 0.996
DNA.Ligase.IV.R.C RPPA level (replicates): 1.015 and 1.171 and 1.125
DNA_POLG.R.V RPPA level (replicates): 1.082 and 0.866 and 0.834
c.Jun_pS73.R.V RPPA level (replicates): 0.903 and 1.005
c.Kit.R.V RPPA level (replicates): 1.119 and 0.884 and 0.682
c.Met_pY1234_Y1235.R.V RPPA level (replicates): 0.935 and 1.110 and 1.140
c.Myc.R.C RPPA level (replicates): 1.016 and 0.996 and 1.017
cGAS.R.V RPPA level (replicates): 1.013 and 0.955
cdc2_pY15.R.C RPPA level (replicates): 0.982 and 1.425 and 1.193
cdc25C.R.V RPPA level (replicates): 0.985 and 0.925 and 0.943
RPPA MYH11.R.C (single replicates): 1.049 and 0.899 and 0.794
RPPA Myosin.IIa.R.C (single replicates): 0.881 and 0.604
RPPA Myosin.IIa_pS1943.R.V (single replicates): 1.019 and 0.869 and 0.642
RPPA Myt1.R.C (single replicates): 0.900
RPPA N.Cadherin.R.V (single replicates): 1.025 and 0.927 and 1.105
RPPA N.Ras.M.V (single replicates): 1.017 and 0.997
RPPA NAPSIN.A.R.C (single replicates): 0.989 and 1.114 and 1.136
RPPA NDRG1_pT346.R.V (single replicates): 0.757 and 1.000 and 1.113
RPPA NDUFB4.R.V (single replicates): 1.030 and 0.897
RPPA NRF2.R.C (single replicates): 0.980 and 1.023 and 1.172
RPPA Notch1.R.V (single replicates): 0.979 and 0.930
RPPA Notch1.cleaved.R.V (single replicates): 0.872 and 1.026
RPPA Notch3.R.C (single replicates): 0.916 and 1.149
RPPA Oct.4.R.C (single replicates): 1.033 and 1.165 and 1.085
RPPA P.Cadherin.R.C (single replicates): 0.913 and 1.419 and 0.819
RPPA PAI.1.M.V (single replicates): 0.893 and 0.953 and 1.083
RPPA PAICS.R.C (single replicates): 1.002 and 0.988 and 0.707
RPPA PAK1.R.V (single replicates): 1.101
RPPA PAK4.R.V (single replicates): 0.901 and 0.983
RPPA PAK_pS474_S602_S560.R.V (single replicates): 1.077 and 0.883 and 0.855
RPPA PAK_pT423_T402.R.C (single replicates): 0.941 and 1.054 and 0.768
RPPA PAR.R.C (single replicates): 1.057 and 2.014 and 0.910
RPPA PARG.R.C (single replicates): 0.916 and 0.961 and 1.160
RPPA PARP.R.V (single replicates): 0.918 and 1.359 and 0.791
RPPA PAX6.R.V (single replicates): 0.958 and 1.096
RPPA PAX8.R.C (single replicates): 1.084 and 0.915 and 0.888
RPPA PCNA.M.C (single replicates): 0.983 and 0.768
RPPA PD.1.R.V (single replicates): 1.028 and 0.932 and 1.016
RPPA PD.L1.R.C (single replicates): 0.986 and 1.136
RPPA PDH.M.V (single replicates): 1.030 and 0.955 and 1.162
RPPA PDHA1.R.V (single replicates): 0.999 and 1.134 and 1.104
RPPA PDHK1.R.C (single replicates): 0.895 and 1.143 and 1.132
RPPA PDK1.R.V (single replicates): 0.979 and 1.236 and 0.914
RPPA PDK1_pS241.R.V (single replicates): 1.012 and 1.286 and 1.116
RPPA PEA.15.R.V (single replicates): 0.973 and 1.022 and 0.716
RPPA PEA.15_pS116.R.V (single replicates): 1.025 and 1.082
RPPA PERK.R.V (single replicates): 0.799 and 0.886
RPPA PGM1.R.V (single replicates): 0.922
RPPA PHGDH.R.C (single replicates): 1.026 and 1.054 and 1.162
RPPA PHLPP.R.V (single replicates): 1.309 and 0.725 and 0.733
RPPA PI3K.p85.R.C (single replicates): 0.979
RPPA PI3K.p110.a.R.C (single replicates): 0.889 and 1.115 and 1.166
RPPA PI3K.p110.b.M.C (single replicates): 1.076 and 0.970 and 0.893
RPPA PKA.a.R.V (single replicates): 1.082 and 0.998 and 0.958
RPPA PKC.a.b.II_pT638_T641.R.V (single replicates): 0.773 and 0.933
RPPA PKC.b.II_pS660.R.V (single replicates): 0.932 and 1.415 and 1.139
RPPA PKCa.R.V (single replicates): 0.879 and 2.309 and 1.199
RPPA PKM2.R.C (single replicates): 0.777
RPPA PLC.gamma1.R.V (single replicates): 1.266 and 0.848 and 0.796
RPPA PLC.gamma1_pS1248.R.V (single replicates): 1.131 and 1.203 and 0.848
RPPA PLC.gamma2_pY759.R.V (single replicates): 0.953
RPPA PLK1.R.C (single replicates): 0.988 and 0.536 and 1.237
RPPA PMS2.R.V (single replicates): 1.054 and 0.898 and 0.867
RPPA PR.R.V (single replicates): 1.016 and 0.968 and 1.112
RPPA PRAS40.M.C (single replicates): 1.006 and 0.977 and 0.990
RPPA PRAS40_pT246.R.V (single replicates): 0.957 and 1.288 and 0.838
RPPA PRC1_pT481.R.C (single replicates): 0.841 and 0.955
RPPA PREX1.R.V (single replicates): 0.972 and 0.995 and 1.201
RPPA PTEN.R.V (single replicates): 0.880 and 1.147
RPPA PTPN12.R.V (single replicates): 1.009 and 1.217 and 1.054
RPPA PYGB.R.V (single replicates): 0.990 and 0.966 and 0.675
RPPA PYGM.M.C (single replicates): 1.013 and 0.953 and 0.526
RPPA Patched.R.C (single replicates): 0.925 and 1.120 and 1.169
RPPA Paxillin.R.C (single replicates): 0.754 and 1.008 and 1.170
RPPA Pdcd4.R.C (single replicates): 0.973 and 1.288 and 1.207
RPPA Porin.M.V (single replicates): 1.021 and 0.963 and 0.824
RPPA Puma.R.C (single replicates): 1.003 and 0.771
RPPA Pyk2_pY402.R.C (single replicates): 0.977 and 1.146 and 1.149
RPPA RBM15.R.V (single replicates): 0.950 and 1.004 and 0.982
